Assay results as given in patent publication US11840545B1, “Spirooxindole-copper complex as novel efficient anticorrosion agent for C-steel” (KING FAISAL UNIVERSITY, priority 2023, dated 2023).

How the values were obtained:
[1] = Impedance study of corrosion inhibition, equivalent circuit model CPE with Diffusion; conditions: for IE: impedance, C-steel, 1M HCl, 298 K; for % inhibition from Impedance: summary Table 16, C-steel in 1 M HCl; for % Inhibition from Impedance studies: summary Table 17, C-steel in 1 M HCl
Source text: (§1) In an embodiment, the thus formed CuL copper complex can undergo anticorrosion studies by adding the obtained CuL copper complex to hydrochloric acid (for example, at 1M) using a C-steel electrode.
(§2) The % inhibition of Spiro compounds SP34, SP37 and SP311 and their copper complexes for C-steel in hydrochloric acid solution (1M) were computed by Impedance and Polarization studies. The model used for the electrochemical equivalent circuit to fit the impedance for anticorrosion studies of Carbon steel (C-steel) by Spiro inhibitors was CPE with diffusion as shown in FIG. 7.

[2] = Polarization (Tafel) study of corrosion inhibition; conditions: for IE: polarization, C-steel, 1M HCl, 298 K; for % inhibition from Tafel: summary Table 16, C-steel in 1 M HCl; for % Inhibition from Tafel plots: summary Table 18, C-steel in 1 M HCl
Source text: as §1, §2

## Cc1[nH]nnc1C(=O)[C@H]1[C@H](c2ccc(Cl)cc2Cl)C2CSCN2[C@]12C(=O)Nc1cc(Cl)ccc12 (stereo partly drawn) [SP 34, (3R,6'S,7′R)-6-chloro-7′-(2,4-dichlorophenyl)-6′-(5-methyl-1H-1,2,3-triazole-4-carbonyl)-1′,6′,7′,7a′-tetrahydro-3′H-spiro[indoline-3,5′-pyrrolo[1,2-c]thiazol]-2-one]
[1]; 0.037 mM
  IE: 82.48%
[1]; 0.075 mM
  IE: 94.25%
[1]; 0.112 mM
  IE: 97.37%
[1]
  % inhibition from Impedance: 96.97%
  % Inhibition from Impedance studies: 96.97%
[2]; 0.037 mM
  IE: 90.5%
[2]; 0.075 mM
  IE: 97.1%
[2]; 0.112 mM
  IE: 98.6%
[2]
  % inhibition from Tafel: 98.6%
  % Inhibition from Tafel plots: 98.6%

## Cc1[nH]nnc1C(=O)[C@H]1[C@H](c2cccc([N+](=O)[O-])c2)C2CSCN2[C@]12C(=O)Nc1cc(Cl)ccc12 (stereo partly drawn) [SP 37, (3R,6'S,7′R)-6-chloro-6′-(5-methyl-1H-1,2,3-triazole-4-carbonyl)-7′-(3-nitrophenyl)-1′,6′,7′,7a′-tetrahydro-3′H-spiro[indoline-3,5′-pyrrolo[1,2-c]thiazol]-2-one]
[1]; 0.039 mM
  IE: 21.25%
[1]; 0.078 mM
  IE: 46.85%
[1]; 0.117 mM
  IE: 56.53%
[1]
  % inhibition from Impedance: 56.53%
  % Inhibition from Impedance studies: 56.53%
[2]; 0.039 mM
  IE: 49.0%
[2]; 0.078 mM
  IE: 72.7%
[2]; 0.117 mM
  IE: 82.1%
[2]
  % inhibition from Tafel: 82.1%
  % Inhibition from Tafel plots: 82.1%

## Cc1[nH]nnc1C(=O)[C@H]1[C@H](c2cccc(Br)c2)C2CSCN2[C@]12C(=O)Nc1cc(Cl)ccc12 (stereo partly drawn) [SP 311, (3R,6'S,7′R)-7′-(3-bromophenyl)-6-chloro-6′-(5-methyl-1H-1,2,3-triazole-4-carbonyl)-1′,6′,7′,7a′-tetrahydro-3′H-spiro[indoline-3,5′-pyrrolo[1,2-c]thiazol]-2-one]
[1]; 0.036 mM
  IE: 14.26%
[1]; 0.073 mM
  IE: 8.96%
[1]; 0.109 mM
  IE: 62.89%
[1]
  % inhibition from Impedance: 62.89%
  % Inhibition from Impedance studies: 62.89%
[2]; 0.036 mM
  IE: −1.5%
[2]; 0.073 mM
  IE: 13.0%
[2]; 0.109 mM
  IE: 81.6%
[2]
  % inhibition from Tafel: 81.6%
  % Inhibition from Tafel plots: 81.6%
